Common to all, as to format: cell-based
For assay [1], the target named is T1, M2 (WSN) (M2 protein of Influenza A virus) (Influenza A virus (A/Wilson-Smith/1933(H1N1)), UniProt P05780).
T1 construct: amantadine-resistant, natural Asn31
As to conditions: inducing media (galactose), 30° C., A600 versus time; amantadine 100 μM (FIG. 4).

The target of assay [2] is M2 (WSN, N31S) (M2 protein of Influenza A virus) (Influenza A virus (A/Wilson-Smith/1933(H1N1)), UniProt P05780, N31S).
In assay [3] the target is Udorn M2 (M2 protein of Influenza A virus) (Influenza A virus (A/Udorn/307/1972(H3N2)), UniProt P0DOF5).

“Also recorded” adds a separate entry of the source.

Here are results for 1 compound from patent US5691189A (priority 1995, dated 1997).

Turning to `NC12CC3CC(CC(C3)C1)C2` [amantadine], the “growth of yeast transformants expressing the amantadine-resistant WSN allele of M2 in the presence of amantadine” value in assay [1] is listed as “not remediated”. In addition, the “toxicity of overexpressed WSN(N31S) M2 allele in yeast on addition of amantadine to the media” value in assay [2] was “blocked”. The “growth of yeast transformants expressing the Udorn allele of M2 in the presence of amantadine” value in assay [3] is “growth rescue; also recorded: grow at near wild-type rates”.
